Source: patent publication EP0248597A2, “Phospholipase A2 inhibitors and methods of synthesis” (ORTHO PHARMACEUTICAL CORPORATION, priority 1986, dated 1987)
Values joined by “and” are separate entries in the source; they are usually repeats but may differ in a detail not shown here. Identical values can stand only once. Counter-ions that a name gives are not always drawn.

Columns and labels:
[1] = target: T1, Porcine Pancreas Phospholipase A2 (Sus scrofa, UniProt P00592); assay: Phospholipase A2 assay (hydrolysis of 14C-arachidonyl phosphatidyl choline), porcine pancreas enzyme; type: biochemical
T1 construct: purchased Sigma Chemical Co., St. Louis, MO; host or cells: porcine pancreas
T1 sequence (P00592 23-146): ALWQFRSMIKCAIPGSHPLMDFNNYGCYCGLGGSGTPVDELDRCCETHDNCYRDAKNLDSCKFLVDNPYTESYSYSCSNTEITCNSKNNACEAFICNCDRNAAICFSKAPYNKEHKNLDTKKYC
Method: (§1) The following procedure is a modification of the Phospholipase A₂ assay that was first described by Costentino et al., Prostaglandins, 22, 309 (1981) and is the method used herein to determine rat stomach and porcine pancreas phospholipas A₂ activity.
(§2) A suspension of phospholipase A₂ (Sigma Chemical Co., St. Louis, MO) is diluted with 25 millimolar (mM) Tris HCl buffer containing 1 mM calcium chloride to a final concentration of 10 micrograms of protein per milliliter (ml). Aliquots of 0.1 ml (7.1 units) of the enzyme suspension are added to each assay tube. Test compounds are added tin 0.01 ml aliquots in dimethyl sulfoxide or methanol and the volume is brought to 0.15 ml with the buffer. A preincubation is carried out at 37°C for 5 minutes. To start the reaction, 0.01 microcuries (0.179 nanomoles) of 2-arachidonyl (1-¹⁴C) 1-palmitoyl phosphatidyl choline (New England Nuclear, Boston, MA) are added to each tube, including three blank tubes containing no enzyme, and the incubation is carried out for 10 minutes at 37°C. The reaction is stopped with the addition of 0.07 ml of 1N HCl to each tube. Blanks, controls and each concentration of test compound are assayed in triplicate.
(§3) The reaction mixtures are extracted with ethyl acetate, and the organic and aqueous phases are separated by low speed centrifugation. The organic phase is dried under nitrogen and is then resuspended in 0.01 ml ethyl acetate. Arachidonic acid (50 micrograms in 0.01 ml methanol) is added to each tube as a carrier and standard. The entire mixture is spotted on silica gel G thin layer chromatography plates that are developed in a solvent system of ethyl acetate:acetic acid (99:1 by volume). […] Ten ml of Aquasol-2 (American Cyanamid Co., Wayne, NJ) are added to each vial, and the radioactivity is counted by liquid scintillation spectrometry.
(§4) The data are calculated as the ratio in percent of unesterified arachidonic acid to total radioactivity recovered. The potency of a compound is preferably determined by its IC₅₀ value (the concentration required to inhibit the reaction by 50 percent). […]

[2] = test system: experimentally-induced inflammation in the mouse ear; assay: Mouse ear edema assay (topical anti-inflammatory activity); type: in vivo
Method: Compound 2 was also studied in a mouse ear edema assay to provide a measure of topical anti-inflammatory activity.
The topical antiinflammatory activity of a compound is determined by its ability to inhibit an experimentally-induced inflammation in the mouse ear. Croton oil, or 12-0-tetradecanoylphorbol acetate in acetone is dispensed onto the dorsum of one ear of the mouse. Five to six hours later the mice are sacrificed. A section of each ear is removed with a 7 mm cork borer and weighed on a electronic balance. The difference in weight between treated and untreated ears is determined. Compounds to be evaluated for antiinflammatory activity are incorporated in the croton oil irritant mixture, or applied in an appropriate vehicle.

[3] = target: Rat Stomach Phospholipase A2 (Rattus norvegicus, UniProt P04055); assay: Phospholipase A2 assay (hydrolysis of 14C-arachidonyl phosphatidyl choline), rat stomach enzyme; type: biochemical; conditions: at 10^-4M; read-out: Percent Inhibition of the Hydrolytic Activity of Rat Stomach Phospholipase A2
Chain of Rat Stomach Phospholipase A2 (P04055 23-146): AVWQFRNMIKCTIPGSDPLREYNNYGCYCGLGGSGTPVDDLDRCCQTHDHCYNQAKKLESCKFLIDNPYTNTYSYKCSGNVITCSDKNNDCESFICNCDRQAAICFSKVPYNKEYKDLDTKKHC
Method: as §1, §2, §3, §4

## CCCCCCCCCCCC/C=C\[C@@H](SC[C@H](NC(C)=O)C(=O)OC)[C@@H](O)CCCCO [Compound 2, Methyl N-acetyl-S-6[(5S,6R)-1,5-dihydroxy-7(Z)-eicosenyl]-(R)-cysteinate]
[1]; at 10^-5 Molar (M), three independent trials, 10 µM
  Percent Inhibition of the Hydrolytic Activity of Porcine Pancreas Phospholipase A2: 62% and 86% and 68%
[2]; 50 micrograms
  Inhibition (percent) Mouse No. 1: 33%
  Inhibition (percent) Mouse No. 2: 68%
[2]; 100 micrograms
  Inhibition (percent) Mouse No. 1: 53%
  Inhibition (percent) Mouse No. 2: 72%
[2]; 200 micrograms
  Inhibition (percent) Mouse No. 1: 62%
  Inhibition (percent) Mouse No. 2: 82%
[2]; 400 micrograms
  Inhibition (percent) Mouse No. 1: 75%
  Inhibition (percent) Mouse No. 2: 80%

## CCCCCCCCCCCC/C=C\[C@@H](SC[C@H](NC(=O)CC[C@H](N)C(=O)O)C(=O)NCC(=O)O)[C@@H](O)CCCCOC1CCCCO1 (stereo partly drawn) [Compound 3, S-6-[(5S,6R)-5-hydroxy-1-(2-tetrahydropyranyloxy)-7(Z)-eicosenyl] glutathione triethylammonium salt dihydrate]
[3]
  inhibition at 100 µM: 55%

## CCCCCCCCCCCC/C=C\[C@@H](SC[C@H](N)C(=O)O)[C@@H](O)CCCCO [Compound 4, (5S,6R)-6-[S-(R)-cysteinyl] -7(Z)-eicosen-1,5-diol hemihydrate]
[3]
  inhibition at 100 µM: 40%

## CCCCCCCCCCCC/C=C\[C@@H](SC[C@H](NC(C)=O)C(=O)OC)C(CCCCO)=NO [Compound 14, Methyl N-acetyl-S-6-[(5S,6R)-1-hydroxy-5-oximino-7(Z)-eicosenyl]-(R)-cysteinate]
[3]
  inhibition at 100 µM: 58%
[1]; at 10^-4M, 100 µM
  Percent Inhibition of the Hydrolytic Activity of Porcine Pancreas Phospholipase A2: 73%
[1]; at 10^-4M, read-out: Percent Inhibition of the Hydrolytic Activity of Porcine Pancreas Phospholipase A2
  inhibition at 100 µM: 72%
